# “Also recorded” adds a separate entry of the source.
# What was measured:
# [1] = tested on: immortalized human vaginal epithelial cells (MS74); assay: MTT assay of metabolic activity (cytotoxicity); format: cell-based; conditions: FIG. 13
# From the text: HeLa S3 cells were cultivated in Dulbecco's modified Eagle's medium (DMEM) medium supplemented with 10% fetal calf serum and passaged every 2-3 days. Primary human vaginal epithelial cells (hVEC/MS74) were obtained from A. J. Schaeffer (Feinberg School of Medicine, Northwestern University, Chicago, Ill.) and are derived from vaginal tissue of a post-menopausal person. The cell line was created through immortalization of these cells with human papilloma virus 16, E6 and E7 genes according to literature (N. Rajan et. al., Characterization of an immortalized human vaginal epithelial cell line. J Urol 163, 616-622 (2000)). MS74 were cultured on gelatine-coated cell culture dished using Dulbecco's modified Eagle's medium (DMEM) medium (biochrom) supplemented with 10% fetal calf serum, 1% non-essential amino acids and 1% pyruvate at 37° C. in 5% CO2 and subcultured when half confluency was reached.
# All plates were coated overnight at 4° C. with 0.1% gelatine in PBS before use. 2×10^4 HeLa S3 or MS74 cells were incubated with the mentioned concentrations of NQNO in 100 μl of their respective medium and incubated for 2 days at 37° C. and 5% CO2. 10 μl of MTT solution (12 mM in PBS, sterile filtered with […]) were added. The cells were subsequently incubated for 2 h at 37° C. […] 0D550 was measured using a Thermo Fisher Varioskan Flash spectrophotometer.
# [2] = Tissue integrity and tolerability after topical vaginal application in CEAtg mice; format: in vivo
# Method: 6 to 8 week old, female CEA-transgenic mice were infected with N. gonorrhoeae. 2 h after infection, the animals were treated with 20 μl buffer containing solvent (DMSO) or 50 μM NQNO (Compound represented by the Formula (5)). 20 h later, the genital tract was excised and cryosections were stained for cell nuclei (Hoechst; blue), human CEA (red) and N. gonorrhoeae (gonococci, green) (FIG. 8).
# Additional cryosections from the same samples were stained for cell nuclei (Hoechst; blue), human collagen (red) and N. gonorrhoeae (gonococci, green) (FIG. 9).
# 6 to 8 week old, female CEA-transgenic mice were treated with 20 μl buffer containing solvent (DMSO) or 50 μM NQNO (Compound represented by the Formula (5)). 20 h later, the genital tract was excised, fixed, paraffin embedded and tissue sections were stained with HE (Haematoxilin/Eosin) solution.
# In particular, in the above experiment the genital tract of infected and NQNO/DMSO or DMSO treated animals was excised and placed in 4% neutral buffer containing formalin overnight followed by 0.4% PFA (paraformaldehyde) treatment. The tissue was then dehydrated and embedded in paraffin. 10 μm serial sections were cut, deparaffinized and rehydrated in a graded series (100% to 75%) of ethanol. Sections were serially stained with Hematoxilin solution according to Mayer (Sigma) and 0.5% Eosin G solution (Roth).
# [3] = Stability in DMEM with 10% fetal calf serum by LC-MS; format: physicochemical; conditions: 100 μM in DMEM with 10% fetal calf serum, 24° C. and 37° C.
# Method: Stability of 100 μM NQNO in Dulbecco's modified Eagle's medium (DMEM) medium supplemented with 10% fetal calf serum at 24° C. and 37° C. was evaluated over a period of 4 days. Samples were taken at the beginning (day 0) and every second day. Samples were analyzed by LC-MS and the integrals of the detected NQNO (by using extracted ion chromatograms) compared to the integral of the control (100 μM NQNO in H2O) which was set to 100%.
# [4] = tested on: multidrug-resistant N. gonorrhoeae isolate from Slovenia; assay: Growth curves in liquid culture (optical density) vs DMSO control; format: cell-based, Neisseria gonorrhoeae
# Method: Growth experiments with NQNO were conducted against Neisseria gonorrhoeae strain MS11 (Edwards, M., et al., Antigenic analysis of gonococcal pili using monoclonal antibodies, J Exp Med, 1984. 160(6): p. 1782-91) and a multidrug-resistant N. gonorrhoeae isolate from Slovenia (Unemo M, Golparian O, Potočnik M, Jeverica S. Treatment failure of pharyngeal gonorrhoea with internationally recommended first-line ceftriaxone verified in Slovenia, September 2011. Euro Surveill. 2012; 17(25):pii=20200), Neisseria macacae, and Lactobacillus brevis. The bacteria were inoculated in GC (Difco™ GC medium Ref. 228950, BD Becton Dickinson) and PPM broth (15 g/L Proteon Pepton, 1 g/L soluble starch, 5 g/L NaCl, 4 g/L KH2PO4, 1 g/L K2HPO4, pH 7.5) (Neisseriae) or TSB (BBL™ Trypticase Soy Broth Ref 211768, BD Becton Dickinson) (Lactobacillus) supplemented with solvent (DMSO) or the indicated concentrations of NQNO (5-50 04) and their growth at 37° C. was monitored over the course of 10 h by optical density readings in 30 minute intervals. […]
# Before every experiment, bacteria were pre-cultured in 5 ml liquid medium for at least 2 hours then harvested and resuspended in PBS (phosphate buffered saline). Optical density (OD) was determined and a volume equal to an OD of 0.2 was inoculated into 5 ml of the respective medium. […] Optical density was determined every 0.5 h.
structure (smiles),measurement,setting,value
"CCCCCCCCCc1cc(=O)c2ccccc2n1O [NQNO, 1-Hydroxy-2-nonylquinolin-4(1H)-one]",Metabolic activity (MTT),"[1]; 50 μM, two days",only slightly reduced metabolic activity
same,"Cytotoxicity (metabolic activity, MTT)","[1]; up to 25 μM, 2 days",not harmed
same,Histology of vaginal tract epithelium (HE staining),"[2]; CEAtg mice, 20 μl of 50 μM, 20 h, FIG. 10",intact striated epithelium
same,Integrity of mucosal surface and subepithelial tissue (CEA and collagen staining),"[2]; infected CEAtg mice, 20 μl of 50 μM topical, 20 h, FIGS. 8 and 9",continuous and unaltered mucosal surface; also recorded: does not damage the mucosal surface
same,Signs of discomfort in treated mice,[2]; single topical application,did not show any signs of discomfort
same,Time stable in serum-containing cell culture medium,[3],at least 4 days
same,Concentration leading to complete growth inhibition,"[4]; 37° C., 10 h, FIG. 2",≤ 5 µM
same,Concentration leading to complete growth inhibition,[4]; mass concentration given for 5 μM,< 1.4 µg/mL

# From patent publication US11596626B2, “Compound for use against pathogenic Neisseria and Haemophilus species and Moraxella catarrhalis” (priority 2017, dated 2023)
